Values belong to the compound of their own block, whether it stands above or below them.
Tests used:
[1] = biological target: T1, Alpha-ketoglutarate-dependent dioxygenase FTO (Homo sapiens, UniProt Q9C0B1); experiment: Inhibition of His-tagged N-terminal FTO (unknown origin)
[2] = biological target: T2, Cytochrome P450 2C9 (Homo sapiens, UniProt P11712); experiment: Inhibition of CYP2C9 in human liver microsome by Liquid chromatography-tandem mass spectrometric analysis
[3] = Binding affinity to GFP-tagged FTO Tyr108 mutant (unknown origin) assessed as dissociation constant by microscale thermophoresis analysis
[4] = in vivo; details: male, Sprague-Dawley, rat, iv, 5 mg/kg
Description: AUC (0 to infinity) in male Sprague-Dawley rat at 5 mg/kg, iv measured up to 8 hrs by HPLC analysis

[5] = in vitro; details: human, liver microsomes
Description: Metabolic stability in human liver microsome assessed as half-life at 1 uM by HPLC analysis

[6] = in vivo; details: male, Sprague-Dawley, rat, po, 10 mg/kg
Description: AUC (0 to infinity) in male Sprague-Dawley rat at 10 mg/kg, po measured up to 24 hrs by HPLC analysis

[7] = Binding affinity to GFP-tagged FTO (Ser229) mutant (unknown origin) assessed as dissociation constant by microscale thermophoresis analysis
[8] = Half-life in male Sprague-Dawley rat at 5 mg/kg, iv measured up to 8 hrs by HPLC analysis; details: in vivo
[9] = in vivo; details: male, Sprague-Dawley, rat, po, 10 mg/kg; remark: listed apart in the source
Description: Tmax in male Sprague-Dawley rat at 10 mg/kg, po measured up to 24 hrs by HPLC analysis

[10] = biological target: CYP3A4/5 (Homo sapiens, UniProt P08684+P20815); experiment: Inhibition of recombinant CYP3A4/5 in human liver microsome by Liquid chromatography-tandem mass spectrometric analysis; details: recombinant CYP3A4/5 in human liver microsomes
[11] = in vitro; details: rat, liver microsomes
Description: Metabolic stability in rat liver microsomes assessed as hepatic clearance at 1 uM by HPLC analysis

[12] = in vitro; details: human, liver microsomes; remark: listed apart in the source
Description: Metabolic stability in human liver microsomes assessed as hepatic clearance at 1 uM by HPLC analysis

[13] = biological target: Cytochrome P450 2C19 (Homo sapiens, UniProt P33261); experiment: Inhibition of recombinant CYP2C19 in human liver microsome by Liquid chromatography-tandem mass spectrometric analysis
Cytochrome P450 2C19, sequence (P33261 whole entry): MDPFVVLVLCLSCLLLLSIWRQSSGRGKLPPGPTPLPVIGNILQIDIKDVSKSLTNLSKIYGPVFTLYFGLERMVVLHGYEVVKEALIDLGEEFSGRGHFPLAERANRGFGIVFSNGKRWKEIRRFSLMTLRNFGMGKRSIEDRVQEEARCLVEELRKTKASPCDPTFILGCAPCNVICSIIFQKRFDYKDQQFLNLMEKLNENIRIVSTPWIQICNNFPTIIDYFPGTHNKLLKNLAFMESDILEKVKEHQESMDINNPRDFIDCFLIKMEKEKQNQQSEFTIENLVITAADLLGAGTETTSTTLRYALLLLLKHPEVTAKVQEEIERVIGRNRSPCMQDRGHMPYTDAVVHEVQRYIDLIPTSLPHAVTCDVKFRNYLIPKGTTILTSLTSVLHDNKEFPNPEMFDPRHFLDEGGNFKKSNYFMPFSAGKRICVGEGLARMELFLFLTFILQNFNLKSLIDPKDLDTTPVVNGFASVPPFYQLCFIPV

[14] = in vitro; details: rat, liver microsomes; remark: listed apart in the source
Description: Metabolic stability in rat liver microsome assessed as half-life at 1 uM by HPLC analysis

[15] = MRT in male Sprague-Dawley rat at 5 mg/kg, iv measured up to 8 hrs by HPLC analysis; details: in vivo
[16] = biological target: T1, Alpha-ketoglutarate-dependent dioxygenase FTO; experiment: Binding affinity to GFP-tagged FTO (unknown origin) assessed as dissociation constant by microscale thermophoresis analysis
[17] = Binding affinity to GFP-tagged FTO Arg96 mutant (unknown origin) assessed as dissociation constant by microscale thermophoresis analysis
[18] = Binding affinity to GFP-tagged FTO Asp233 mutant (unknown origin) assessed as dissociation constant by microscale thermophoresis analysis
[19] = Binding affinity to GFP-tagged FTO Glu234 mutant (unknown origin) assessed as dissociation constant by microscale thermophoresis analysis
[20] = in vivo; details: male, Sprague-Dawley, rat, po, 10 mg/kg; remark: listed apart in the source
Description: Oral bioavailability in male Sprague-Dawley rat at 10 mg/kg measured up to 24 hrs by HPLC analysis

[21] = in vitro; details: rat, liver microsomes; remark: listed apart in the source
Description: Metabolic stability in rat liver microsomes assessed as intrinsic clearance per mg protein at 1 uM by HPLC analysis

[22] = in vitro; details: human, liver microsomes; remark: listed apart in the source
Description: Metabolic stability in human liver microsomes assessed as intrinsic clearance per mg protein at 1 uM by HPLC analysis

[23] = biological target: T2, Cytochrome P450 2C9; experiment: Inhibition of recombinant CYP2C9 in human liver microsome by Liquid chromatography-tandem mass spectrometric analysis
[24] = MRT in male Sprague-Dawley rat at 10 mg/kg, po measured up to 24 hrs by HPLC analysis; details: in vivo
[25] = biological target: Cytochrome P450 2D6 (Homo sapiens, UniProt P10635); experiment: Inhibition of recombinant CYP2D6 in human liver microsome by Liquid chromatography-tandem mass spectrometric analysis
Cytochrome P450 2D6, sequence (P10635 whole entry): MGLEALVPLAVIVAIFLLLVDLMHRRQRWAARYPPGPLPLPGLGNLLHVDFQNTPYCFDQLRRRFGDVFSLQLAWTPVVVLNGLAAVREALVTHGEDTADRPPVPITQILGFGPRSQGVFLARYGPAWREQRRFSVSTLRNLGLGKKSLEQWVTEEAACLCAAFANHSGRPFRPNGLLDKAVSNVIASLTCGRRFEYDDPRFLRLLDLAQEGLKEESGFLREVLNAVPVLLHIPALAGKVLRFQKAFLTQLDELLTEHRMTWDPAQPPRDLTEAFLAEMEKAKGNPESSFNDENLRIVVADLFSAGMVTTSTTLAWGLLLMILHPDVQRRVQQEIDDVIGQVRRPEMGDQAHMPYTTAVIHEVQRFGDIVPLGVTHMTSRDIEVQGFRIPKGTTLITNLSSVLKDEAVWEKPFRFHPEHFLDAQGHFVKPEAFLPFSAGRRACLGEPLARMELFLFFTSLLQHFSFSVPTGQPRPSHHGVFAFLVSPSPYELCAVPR

[26] = Half-life in male Sprague-Dawley rat at 10 mg/kg, po measured up to 24 hrs by HPLC analysis; details: in vivo
[27] = in vivo; details: male, Sprague-Dawley, rat, po, 10 mg/kg; remark: listed apart in the source
Description: Cmax in male Sprague-Dawley rat at 10 mg/kg, po measured up to 24 hrs by HPLC analysis

[28] = biological target: T1, Alpha-ketoglutarate-dependent dioxygenase FTO; experiment: Binding affinity to GFP-tagged FTO (unknown origin) assessed as dissociation constant by SPR analysis
[29] = in vivo; details: male, Sprague-Dawley, rat, iv, 5 mg/kg; remark: listed apart in the source
Description: Cmax in male Sprague-Dawley rat at 5 mg/kg, iv measured up to 8 hrs by HPLC analysis

T1 sequence (Q9C0B1 whole entry): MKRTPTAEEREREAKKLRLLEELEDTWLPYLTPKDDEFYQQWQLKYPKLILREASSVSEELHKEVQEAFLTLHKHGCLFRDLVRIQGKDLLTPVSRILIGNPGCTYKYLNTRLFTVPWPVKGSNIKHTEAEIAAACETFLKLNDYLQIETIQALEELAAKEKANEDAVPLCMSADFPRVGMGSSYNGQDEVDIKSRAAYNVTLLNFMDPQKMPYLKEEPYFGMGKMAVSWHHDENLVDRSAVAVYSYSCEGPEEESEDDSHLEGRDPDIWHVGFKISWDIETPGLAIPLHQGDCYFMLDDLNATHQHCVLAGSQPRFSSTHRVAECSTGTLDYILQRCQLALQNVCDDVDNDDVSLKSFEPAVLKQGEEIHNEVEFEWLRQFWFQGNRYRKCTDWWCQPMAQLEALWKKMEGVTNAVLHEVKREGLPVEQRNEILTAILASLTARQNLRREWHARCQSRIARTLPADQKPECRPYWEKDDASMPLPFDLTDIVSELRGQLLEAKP
T2 sequence (P11712 whole entry): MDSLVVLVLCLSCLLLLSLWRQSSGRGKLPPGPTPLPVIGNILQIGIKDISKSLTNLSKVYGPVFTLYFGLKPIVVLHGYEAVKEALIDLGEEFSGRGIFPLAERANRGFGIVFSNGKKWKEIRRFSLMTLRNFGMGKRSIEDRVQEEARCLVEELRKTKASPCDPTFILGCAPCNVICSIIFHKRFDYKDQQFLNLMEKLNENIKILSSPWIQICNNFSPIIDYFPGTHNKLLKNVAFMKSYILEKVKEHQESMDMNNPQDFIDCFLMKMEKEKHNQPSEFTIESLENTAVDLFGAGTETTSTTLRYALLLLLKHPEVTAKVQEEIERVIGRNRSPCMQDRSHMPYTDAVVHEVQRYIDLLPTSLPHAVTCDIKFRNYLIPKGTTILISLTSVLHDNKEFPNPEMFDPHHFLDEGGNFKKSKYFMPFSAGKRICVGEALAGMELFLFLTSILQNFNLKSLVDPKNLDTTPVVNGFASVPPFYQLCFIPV

Structure (SMILES): O=c1cc(-c2ccc(O)c(O)c2)oc2ccccc12
IC50 [1]: 5.7 µM

Structure (SMILES): O=c1c(O)c(-c2ccc(O)cc2)oc2ccccc12
IC50 [1]: 18.5 µM

Structure (SMILES): O=c1cc(-c2cc(O)c(O)c(O)c2)oc2ccccc12
IC50 [1]: 13.9 µM

Structure (SMILES): O=c1ccoc2cc(O)ccc12
IC50 [1]: 16.2 µM

Structure (SMILES): O=c1cc(-c2ccccc2)oc2cccc(O)c12 [5-HYDROXYFLAVONE]
IC50 [1]: 19.2 µM

Structure (SMILES): O=c1cc(-c2ccccc2)oc2ccc(O)cc12 [6-HYDROXYFLAVONE]
IC50 [1]: 17.8 µM

Structure (SMILES): O=c1cc(-c2ccccc2)oc2cc(O)ccc12 [7-HYDROXYFLAVONE]
IC50 [1]: 17.9 µM

Structure (SMILES): O=c1cc(-c2ccc(O)cc2)oc2cc(O)cc(O)c12 [APIGENIN]
IC50 [1]: 12.1 µM

Structure (SMILES): O=c1cc(-c2ccccc2)oc2cc(O)c(O)c(O)c12 [BAICALEIN]
IC50 [1]: 17.1 µM

Structure (SMILES): O=c1ccoc2ccccc12 [CHROMONE]
IC50 [1]: 89.8 µM

Structure (SMILES): CCN(CC)C(=O)/C(C#N)=C/c1cc(O)c(O)c([N+](=O)[O-])c1 [ENTACAPONE]
IC50 [2]: 4 µM

Structure (SMILES): O=C1C[C@@H](c2ccc(O)c(O)c2)Oc2cc(O)cc(O)c21 [ERIODICTYOL]
Kd [3]: 47.6 µM
AUC(0-inf) at 8 h [4]: 932 ng·h/mL
half-life at 1 µM [5]: > 3.11 h
AUC(0-inf) at 24 h [6]: 559 ng·h/mL
Kd [7]: 170 µM
half-life at 8 h [8]: 1.63 h
Tmax at 24 h [9]: 0.5 h
IC50 [10]: > 50 µM
CLhep predicted at 1 µM [11]: 37.9 mL/min/kg
CLhep predicted at 1 µM [12]: < 6.1 mL/min/kg
IC50 [13]: 44 µM
half-life at 1 µM [14]: 0.345 h
MRT at 8 h [15]: 0.828 h
Kd [16]: 2.8 µM
Kd [17]: 257 µM
Kd [18]: 109 µM
Kd [19]: 186 µM
bioavailability at 24 h [20]: 29.9%
microsomal CLint at 1 µM [21]: 67.2 µL/min/mg
microsomal CLint at 1 µM [22]: < 7.4 µL/min/mg
IC50 [23]: > 50 µM
MRT at 24 h [24]: 1.89 h
IC50 [25]: > 50 µM
IC50 [1]: 3.5 µM
half-life at 24 h [26]: 3.35 h
Cmax at 24 h [27]: 472 ng/mL
Kd [28]: 3.24 µM
Cmax at 8 h [29]: 1830 ng/mL

Structure (SMILES): O=c1cc(-c2ccc(O)c(O)c2)oc2cc(O)cc(O)c12 [LUTEOLIN]
IC50 [1]: 7.5 µM

Structure (SMILES): O=c1c(O)c(-c2ccc(O)c(O)c2)oc2cc(O)cc(O)c12 [QUERCETIN]
IC50 [1]: 9.5 µM

Next, values leading:

IC50 [1]: 9.2 µM
Structure (SMILES): O=c1c(O)c(-c2ccc(O)c(O)c2)oc2cc(O)ccc12 [FISETIN]

IC50 [1]: 19.1 µM
Structure (SMILES): O=c1c(O)c(-c2ccccc2)oc2cc(O)cc(O)c12 [GALANGIN]

IC50 [1]: 18.2 µM
Structure (SMILES): COc1ccc(-c2oc3cc(O)cc(O)c3c(=O)c2O)cc1 [KAEMPFERIDE]

IC50 [1]: 17.6 µM
Structure (SMILES): O=c1c(O)c(-c2ccc(O)cc2)oc2cc(O)cc(O)c12 [KAEMPFEROL]

IC50 [1]: 13.9 µM
Structure (SMILES): O=c1c(O)c(-c2ccc(O)cc2O)oc2cc(O)cc(O)c12 [MORIN]

Kd [16]: 34 µM
IC50 [1]: 9.6 µM
Structure (SMILES): O=c1c(O)c(-c2cc(O)c(O)c(O)c2)oc2cc(O)cc(O)c12 [MYRICETIN]

IC50 [1]: 15.6 µM
Structure (SMILES): O=c1cc(-c2ccc(O)cc2)oc2cc(O)c(O)c(O)c12 [SCUTELLAREIN]

IC50 [1]: 7.7 µM
Structure (SMILES): O=c1cc(-c2cc(O)c(O)c(O)c2)oc2cc(O)cc(O)c12 [TRICETIN]
